Reference: patent publication US20210293785A1, “METHODS FOR PREDICTING STEROID RESPONSIVENESS” (FLORIDA STATE UNIVERSITY RESEARCH FOUNDATION, INC., priority 2020, published 2021)

Tested on: keloid fibroblasts
Test: Cell proliferation assay of patient-derived fibroblasts with or without steroid
Format: cell-based, human
Experimental: As depicted in the flow diagram of FIG. 3, in some embodiments, the method of the invention involves culturing small (˜2 mm) tissue pieces using standard cell culture media and conditions to allow the outgrowth of cells, which takes 1-2 weeks. Depending upon the desired cell type or cell types, non-invasive sampling methods can be utilized, such an oral rinse. The outgrown cells are collected by trypsinization and re-seeded in fresh wells. Upon attachment, the cells are treated in triplicate with or without 10 micromolar Triamcinolone Acetonide (TA), a potent synthetic steroid used widely in the clinic, or varying concentrations of any other test steroid. The viable cells are harvested 4-7 days post-treatment (when the untreated cells start approaching confluency) and counted to determine the effects of the steroid on cell proliferation. The inventors have tested the method of the invention using fibroblast cells derived from 3 normal human skin biopsies as well as 20 surgically excised keloids from patients and exposing them to TA, as well as hydrocortisone, another commonly used steroid in the clinic. The results were remarkably similar to those observed for the response of keloid patients to steroids in the clinic, with 52% of the samples being sensitive (responsive) to the TA treatment, while 39% were non-responsive and 9% were hyperproliferative in TA (which predicts a worsening of condition upon steroid therapy). In summary, our screening test described herein can be used to determine patients' responses to steroids in less than 4 weeks, following which responsive patients can undergo steroid therapy, while others can avoid the potentially harmful steroids altogether and seek other therapies. Culture of keloid derived primary fibroblast cells. Surgically excised keloid and normal skin explants were obtained from patients under Florida State University IRB (2016.19175 and 2017.22173). The explants were cut into small pieces, digested with trypsin, washed with and cultured in DMEM containing 10% fetal bovine serum and Antibiotic/Antimycotic solution maintained at 37° C. and 5% CO2. Outgrowth of only primary dermal fibroblasts occurred under our culture conditions and these were recovered by trypsinization for use in experiments at low passage. The keloid fibroblasts are morphologically identical to commercially obtained normal primary Human Dermal Fibroblasts (HDF) (Cell Applications, Cat.#106-05a) used in our controls. Cell proliferation assays. To determine relative cell survival following radiation or steroid treatments, 7,500 fibroblasts were seeded per well in triplicate in 12-well plates. Following attachment, the cells were treated with steroids or irradiated using a X-Rad 320 irradiator. Surviving fibroblasts were counted on a Coulter counter 7 days post-treatment.

[1] = fibroblasts from 3 normal human skin biopsies and 20 surgically excised keloids, 10 micromolar TA, cells counted 4-7 days post-treatment
[2] = keloid explants and fibroblasts, 10 μM TA for a week

Q: Which results are given for `CC1(C)O[C@@H]2C[C@H]3[C@@H]4CCC5=CC(=O)C=C[C@]5(C)[C@@]4(F)[C@@H](O)C[C@]3(C)[C@]2(C(=O)CO)O1` [TA, Triamcinolone Acetonide]?
A: samples hyperproliferative in TA [1]: 9%; samples non-responsive to TA [1]: 39%; samples sensitive (responsive) to the TA treatment [1]: 52%; samples with hyperproliferation [2]: 10%; samples with modest reduction in proliferation (steroid sensitive) [2]: 50%; samples with no significant effects on proliferation (steroid insensitive) [2]: 40%
